# Target: T1, TLR9 (Mus musculus, UniProt Q9EQU3)
# T1 construct: from tissue; host or cells: whole animal: C57BL/6, FVB and FVB GADD34ΔC/ΔC mice
# T1 sequence (Q9EQU3 26-1032): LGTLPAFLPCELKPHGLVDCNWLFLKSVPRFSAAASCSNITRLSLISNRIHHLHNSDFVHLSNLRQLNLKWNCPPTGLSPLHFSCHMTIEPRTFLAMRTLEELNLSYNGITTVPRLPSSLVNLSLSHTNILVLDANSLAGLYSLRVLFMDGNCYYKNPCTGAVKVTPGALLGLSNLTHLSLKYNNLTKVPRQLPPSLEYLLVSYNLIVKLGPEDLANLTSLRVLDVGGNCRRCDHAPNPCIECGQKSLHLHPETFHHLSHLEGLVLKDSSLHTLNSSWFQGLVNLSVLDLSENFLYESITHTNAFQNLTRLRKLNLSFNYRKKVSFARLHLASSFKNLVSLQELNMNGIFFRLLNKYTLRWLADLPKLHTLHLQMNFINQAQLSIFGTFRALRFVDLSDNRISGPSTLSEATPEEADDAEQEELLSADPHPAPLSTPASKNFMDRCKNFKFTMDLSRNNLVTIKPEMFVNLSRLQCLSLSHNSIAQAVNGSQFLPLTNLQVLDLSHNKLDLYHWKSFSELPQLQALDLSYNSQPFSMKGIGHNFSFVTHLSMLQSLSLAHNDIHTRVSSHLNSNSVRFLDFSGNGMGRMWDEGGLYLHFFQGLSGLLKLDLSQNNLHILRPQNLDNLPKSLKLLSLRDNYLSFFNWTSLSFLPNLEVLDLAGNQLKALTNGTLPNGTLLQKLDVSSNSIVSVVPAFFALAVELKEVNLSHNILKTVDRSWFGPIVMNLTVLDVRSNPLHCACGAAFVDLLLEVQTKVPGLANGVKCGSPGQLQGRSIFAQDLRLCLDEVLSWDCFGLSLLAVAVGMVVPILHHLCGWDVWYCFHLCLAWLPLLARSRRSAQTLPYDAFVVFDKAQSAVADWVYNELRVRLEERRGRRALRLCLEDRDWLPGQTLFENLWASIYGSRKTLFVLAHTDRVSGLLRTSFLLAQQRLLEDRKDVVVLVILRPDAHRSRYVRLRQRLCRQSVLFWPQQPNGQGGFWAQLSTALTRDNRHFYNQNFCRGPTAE
# Test: D-galN/CpG ODN 1826 cytokine shock model
# Assay type: in vivo
# Procedure: WT and GADD34^ΔC/ΔC mice were injected with D-galN (20 mg/mouse), CpG ODN 1826 or PBS for control mice (50 μg/20 g), GBZ or clonidine (2 mg/kg). (A) Survival of C57/BL6 mice is represented as total percentage of survival after 48 h or in a Kaplan-Meier plot. (B) Survival of FVB (WT) and FVB GADD34^ΔC/ΔC mice is represented as total percentage of survival after 48 h or in a Kaplan-Meier plot. (C) The concentration of circulating TNF-α, IL-10 and IL-6 in C57/BL6 mice was measured after 1 h and/or 3 h of CpG ODN 1826. (D) Liver tissue damage and histology score were blindly determined by a professional anatomopathologist. Statistical significance was assigned on sample comparison by a one-way ANOVA, followed by Tukey range test and on the survival curve using log-rank test, followed by Benjamini-Yekutieli correction (* p<0.05; ** p<0.005; ***p<0.0005.).
# Wild type female mice C57BL/6 of 8 weeks of age were injected i.p. with 2 mg/kg of GBZ, clonidine or PBS/DMSO. One hour later, they were injected i.p. with 20 mg/mouse of d-GalN and ODN 1826 50 μg/20 g (or PBS). Mice survival was checked every 12 hours for up to 48 hours. For some experiments, blood sera were collected 1 and 3 h after the injection of D-galN. The serum was used to measure circulating cytokines (TNFα, IL-6, IFNβ IL-10, IL-12). For some experiments, the liver was collected for immunohistochemistry after two days. For i.p. injections, 1 ml syringes and 25 gauge needles were used. Blood was collected from the cheek with a 18 gauge needle; for the TMPD model, no more than 200 μL were collected each time, respecting the ethic statement.
# Mouse kidney and liver were fixed in 10% buffered formalin for 24 h, then the tissues were dehydrated and embedded in paraffin. Tissue sections of 3.5 μm were cut using the microtom Leica RM2245. Hematoxylin-eosin staining was effectuated automatically with Leica autostainer XL. Finally, the slides were mounted with entellan and kept at room temperature. Biopsies were analyzed by an anatomopathologist and the clinical score was assigned in a blinded way. Pictures were taken with Nikon Eclipse.
# • a) Lobular inflammation • 0—no inflammation, 1—mild lobular inflammation (<10% of liver parenchyma), 2—moderate lobular inflammation (10-50% of liver parenchyma), 3—severe lobular inflammation (>50% of liver parenchyma) • b) Portal inflammation • 0—no portal inflammation, 1—mild portal inflammation (<⅓ of portal tracts), 2—moderate portal inflammation (approximately 50% of portal tracks), 3—severe portal inflammation (>⅔ of portal tracts) • Portal and lobular inflammation score are added=inflammation score • c) Necrosis • 0—No necrosis, 1—<10% necrosis of liver parenchyma, 2—10-25% necrosis of liver parenchyma, 3—25% necrosis of liver parenchyma • Inflammation score and necrosis score are added=Total histologic score
# [1] = WT mice, 1 hour after CpG injection, 2 mg/kg
# [2] = WT mice, 3 h after CpG injection, 2 mg/kg
structure (smiles),measurement,setting,value
"Clc1cccc(Cl)c1NC1=NCCN1 [clonidine, N-(2,6-dichlorophényl)-4,5-dihydro-1H-imidazol-2-amine]",survival after 48 h,"C57BL/6 WT mice, D-galN + CpG ODN 1826, compound 2 mg/kg i.p.",not substantially changed
same,circulating IL-6 plasma concentration,[1],some inhibitory effect
same,circulating TNF-α plasma concentration,[1],some inhibitory effect
same,inhibitory effect on IL-6 production,[2],not observed
same,inhibitory effect on TNF-α production,[2],not observed
